System: phenylephrine-precontracted vessels (thoracic aorta or femoral vein rings)
Test: in vitro vascular reactivity test: relaxation of phenylephrine-precontracted aorta or vein rings
Conditions: at 100 μM; relative to phenylephrine (0.1 μM)-induced contractile tone
Source text: The determination of the nitrogen monoxide-releasing properties of a compound, be it by enzymatic or non-enzymatic action, can be carried out by means of in vitro vascular reactivity tests. The in vitro vascular reactivity test measures the ability of the released nitrogen monoxide to relax a pretensioned aorta ring or vein ring which is kept in an organ chamber. […] The thoracic aorta or the femoral vein is isolated from sacrificed and exsanguinated Wistar rats and cut up to give rings 2 mm long. The vascular rings are stored in organ chambers. Changes in the development of tension after the action of compounds are recorded by an isometric signal transmitter, which is connected to a computerized detection system. The computer program analyses time curves, period and size amounts between contractions.

SMILES | relaxation, percentage of the maximal vessel relaxation achieved with sodium nitroprusside (SNP) [%]
COCCCN1CCOc2ccc(CO[C@H]3CNC[C@@H](OC[C@@H](C)O[N+](=O)[O-])[C@@H]3c3ccc(COCCOC)cc3)cc21 [Example 6] | 15
COCCCN1CCOc2ccc(CO[C@H]3CNC[C@@H](OC[C@H](O)CO[N+](=O)[O-])[C@@H]3c3ccc(COC[C@@H](C)COC)cc3)cc21 [Example 8, (S)-1-{(3S,4R,5R)-4-[4-((S)-3-Methoxy-2-methyl-Propoxymethyl)phenyl]-5-[4-(3-methoxypropyl)-3,4-dihydro-2H-benzo[1,4]oxazin-6-ylmethoxy]-piperidin-3-yloxy}-3-nitrooxypropan-2-ol] | 20
COCCCN1CCOc2ccc(CO[C@H]3CNC[C@@H](O[N+](=O)[O-])[C@@H]3c3ccc(COC[C@@H](C)COC)cc3)cc21 [Example 9, 6-{(3R,4R,5S)-4-[4-((S)-3-Methoxy-2-methylpropoxy-methyl)phenyl]-5-nitrooxypiperidin-3-yloxy-methyl}-4-(3-methoxypropyl)-3,4-dihydro-2H-benzo-[1,4]oxazine] | 8
COCCCN1CCOc2ccc(CO[C@H]3CNC[C@@H](OC[C@@H](COC)O[N+](=O)[O-])[C@@H]3c3ccc(COC[C@@H](C)COC)cc3)cc21 [Example 14] | 25
COCCCN1CCOc2ccc(CO[C@H]3CNC[C@@H](CO[N+](=O)[O-])[C@@H]3c3ccc(COC[C@@H](C)COC)cc3)cc21 [Example 21, 6-{(3R,4R,5S)-4-[4-((S)-3-Methoxy-2-methyl-propoxymethyl)phenyl]-5-nitro-oxymethylpiperidin-3-yloxymethyl}-4-(3-methoxypropyl)-3,4-dihydro-2H-benzo[1,4]oxazine] | 20
COCCCN1CCOc2ccc(CO[C@H]3CNC[C@@H](OC[C@H](COC)O[N+](=O)[O-])[C@@H]3c3ccc(COC[C@@H](C)COC)cc3)cc21 [Example 34, 6-[(3R,4R,5S)-4-[4-((S)-3-Methoxy-2-methylpropoxy-methyl)phenyl]-5-((S)-3-methoxy-2-nitrooxy-propoxy)piperidin-3-yloxymethyl]-4-(3-methoxy-propyl)-3,4-dihydro-2H-benzo[1,4]oxazine] | 8

— US20090325947A1, “NITRATE ESTERS OF PIPERIDINES” (priority 2006, published 2009)
